In patent US9303076B2, “Cell-penetrating peptides and uses thereof” (Hoffmann-La Roche Inc., priority 2010, dated 2016):

Key:
human Aha1 mRNA = assay: siRNA transfection in the presence of serum; format: cell-based; conditions: serum-containing medium
Protocol: NRTN was analyzed for its ability to transfect siRNA duplexes in the absence (A) and presence (B) of serum in the transfection medium. The experimental approach was the same as in FIG. 3. The assay was either carried out in normal RPMI 1640 growth medium containing 10% FCS (B) or for three hours in OptiMEM reduced serum medium followed by change of the medium back to normal growth medium (A). The mRNA values obtained at 1 μM were set to 100% to show dose dependent effects. Aha1 siRNA is shown as black filled squares; luciferase siRNA is shown as non-filled circles.
Most of the assays described herein were performed under the “standard in vitro conditions” for the detection of peptide-mediated transfection that are well established in the art (see, e.g., Simeoni, F. et al. (2003) Nucleic Acids Res. 31, 2717-2724; Richard, J. P. et al. (2005) J. Biol. Chem. 280, 15300-15306; Abes, R. et al. (2007) Biochem. Soc. Trans. 35, 775-779; Kumar, P. et al. (2007) Nature 448, 39-43; Mueller, J. et al. (2008) Bioconjug. Chem. 19, 2363-2374; Sugita, T. et al. (2008) Br. J. Pharmacol. 153, 1143-1152). Accordingly, the incubation for the initial “transfection step” is performed under basically serum free conditions. The addition of serum at this step interferes with the transfection ability of the CPPs (cf. FIG. 13; see also Ignatovich, I. A. et al. (2003), supra). […]

recombinant BCL2 = biological target: T1, recombinant BCL2 (Homo sapiens, UniProt P10415); assay: BCL2 binding to bead-immobilized peptides; conditions: iodoacetyl beads, elution buffer pH 2.8, protein stain
T1 construct: purchased Calbiochem/Merck, Darmstadt, Germany
Protocol: In order to determine whether the BCL2 binding properties of the Nur77-derived peptide are maintained in the NurNRTN fusion peptide, the respective NurNRTN and NRTN peptides were coupled to iodoacetyl beads (Pierce Biotechnology, Inc., Rockford, Ill., USA). The beads were incubated with recombinant BCL2 (Calbiochem/Merck, Darmstadt, Germany) and washed with PBS and 0.5 M NaCl, 0.025 NaN3, 0.05% Tween20 to remove unbound protein. Specific binding of BCL2 to the immobilized NurNTRN fusion peptide was determined by eluting bound […] from the beads with elution buffer (pH 2.8), transfer of the eluted fraction to nitrocellulose (Invitrogen Corporation, Carlsbad, Calif., USA), and protein detection by means of the MemCode Reversible Protein Stain Kit (Pierce Biotechnology, Inc., Rockford, Ill., USA).

siRNA duplex = assay: gel-shift assay of peptide/siRNA complex formation; format: binding; conditions: ethidium bromide staining
Protocol: Gel-shift assays were performed by mixing […] siRNA duplex with the respective peptides in a given molar ratio in water. The complexes were formed for 1 hour at 37° C. and analyzed on a 2.5% agarose gel with ethidium bromide (run: 40 minutes at 125 V). For proteinase K treatment, 1 μl proteinase K was added to a standard reaction as indicated above.
Mechanisms that may explain transfection functionalities of charged peptides such as TAT or protamine include the formation of complexes between positively charged peptides and negatively charged nucleic acids. Such complexes enable peptide-mediated membrane-interacting and/or endosome escape functionalities to transfer the complexed nucleic acids into the cytosol of cells (Law, M. et al. (2008) Biotechnol. Prog. 24, 957-963) In order to address whether the above mechanism may apply to the NTRN-derived peptide as well gel-shift assays were performed (cf. FIG. 8). To this end, siRNA was co-incubated with increasing concentrations of peptide, followed by analyses of their migration pattern via gel electrophoresis.

MCF7 cells = assay: growth inhibition/toxicity (CellTiter-Glo viability, GAPDH mRNA levels)
Protocol: MCF7 cells were seeded at a density of 15.000 cells per well in 96 well plates. The cells were incubated for 24 hours at 37° C., 5% CO2 and 85% humidity in RPMI 1640 medium supplemented with 10% FCS (fetal calf serum) and L-glutamine. For functional assays, the cells were washed in OptiMEM medium and RPMI 1640 was replaced with OptiMEM (all reagents were purchased from Invitrogen Corporation, Carlsbad, Calif., USA). Complexes of siRNAs and peptides were formed by incubation of 100 nM siRNA with the indicated peptide concentrations in OptiMEM for 30 minutes at room temperature. The complexes were added to the cells and incubated for 3 hours. Subsequently, OptiMEM was replaced with normal RPMI 1640 growth medium. The cells were incubated for further 21 hours for generating bDNA lysates, and for further 45 hours for performing CellTiter-Glo or CytoTox-Glo assays (cf. below).
In order to measure the number of living cells the CellTiter-Glo Luminescent Cell Viability Assay (Promega Corporation, Madison, Wis., USA) was used according to the protocol of the manufacturer. The cells were incubated for 48 hours in the presence of peptides and siRNAs. Subsequently, the cells are lysed, and a luminescent signal proportional to the amount of ATP present is generated which, in turn, is proportional to the number of living cells present. Luminescence was analyzed in an InfiniteF200 luminescence reader.
Based on this observation, GAPDH mRNA levels were used as a general readout for toxicity: an average measurement of 100% GAPDH mRNA relative to the medium control was considered as non-toxic, values between 99% and 70% as moderate toxic, and values of less than 70% as toxic (cf. FIG. 3).
Similarly, peptides resulting in GAPDH mRNA values >70% were classified as “nontoxic”, whereas peptides that caused a reduction of GAPDH mRNA to lesser values were termed “toxic”.

[1] = tested on: MCF-7 human breast cancer cells; assay: cell viability/apoptosis after 24 h exposure to pro-apoptotic peptides and CPP fusions; format: cell-based; conditions: MCF-7 cells, various concentrations
Protocol: (§1) MCF-7 human breast cancer cells were incubated for 24 h in the presence of various concentrations of NRTN (squares), Nur (circles), and NurNRTN (triangles) peptides. The respective amino acid sequences are given in the bottom panel. The experimental approach for assessing cell viability (and thus induction of apoptosis) was the same as in FIG. 3.
as §1, with “4E-BP1 (circles), TAT4E-BP1” for “NRTN”, “(squares),” for “(squares), Nur (circles),”, “NRTN4E-BP1” for “NurNRTN”, “peptides (top panel). […]” for “peptides.”
Luminescence was analyzed in an InfiniteF200 luminescence reader.
Then, the cells were treated with a luminogenic peptide substrate in order to measure dead-cell protease activity, which is released from cells that have lost membrane integrity. […] The luminescence of this assay therefore represents dead cells. The 96 well plates were then analyzed in an InfiniteF200 luminescence reader.
Despite its proven ability to convert BCL-2 into a pro-apoptotic molecule, addition of the latter peptide (i.e. “Nor/Nur”; SEQ ID NO: 72) to cancer cells, even in high concentrations, is not sufficient to induce apoptosis, as the cellular target protein is located in the cytoplasm, but the peptide per se cannot effectively penetrate through the cell membrane to reach the target. In brief, MCF-7 breast cancer cells were incubated in the presence of this peptide for 24 h.
(§2) Subsequently, it was evaluated whether the NurNRTN fusion peptide is capable of penetrating cellular membranes and thereby induces pro-apoptotic activity within cells. MCF-7 human breast cancer cells were used as a model. The experimental approach was as described above (cf. Example 1). […] This effect was dose dependent: cytotoxicity increased with increasing concentrations of peptide.
as §2, with “NRTN4E-BP1” for “NurNRTN”

T1 sequence (P10415 whole entry): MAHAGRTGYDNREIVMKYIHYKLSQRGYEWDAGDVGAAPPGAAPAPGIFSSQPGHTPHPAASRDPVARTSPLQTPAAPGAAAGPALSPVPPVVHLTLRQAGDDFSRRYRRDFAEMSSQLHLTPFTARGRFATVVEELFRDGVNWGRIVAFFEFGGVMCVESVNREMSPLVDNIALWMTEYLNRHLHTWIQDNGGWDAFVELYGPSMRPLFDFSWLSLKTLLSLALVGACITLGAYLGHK

GAAEAAARVYDLGLRRLRQRRRLRRERVRA (NRTN peptide sequence; listed as Homo sapiens) [peptide derived from human neurturin]
transfection in the presence of medium with reduced serum concentration (human Aha1 mRNA): can still mediate transfection
BCL2 in eluates from peptide-coated beads (recombinant BCL2): very small amounts of BCL2 were eluted
complex formation with siRNA (siRNA duplex): able to form stable complexes with siRNA
interference with cell viability at doses effective for Eg5 knockdown (MCF7 cells; <10 μM): does not interfere with cell viability
cell viability / growth inhibition / toxicity (CellTiter-Glo, GAPDH mRNA levels) (MCF7 cells; MCF7 cells, peptide 1 μM to 20 μM): only minor effects on cell viability
cell viability / induction of apoptosis [1]: did not affect cell viability or lead to induction of apoptosis
